# Results reported in publication PMC13011345, “Computational and experimental identification of potential neutralizing peptides derived from human ACE2 against SARS-CoV-2 infection” (Journal of Virology, 2026).
# Ends that are not written are not given here.
# Tested on: pseudotyped SARS-CoV-2 particle (VSV-SARS-CoV-2-S virus, Wuhan-Hu-1 spike) infecting BHK21-hACE2 cells
# Conditions: 1 h
row,Sequence,IC50 [nM]
1,AWDLGKGDFRIL [ACE348–359],31.2
2,HIQYDMAYAAQPFLLRNG [ACE378–395],3.8
3,LPNMTQGFWENSML [ACE320–333],43.9
4,QKLFNMLRLGKS [ACE552–563],12.5
